# Test results: US12698473B2, “Cell-containing structure” (Ricoh Company, Ltd., priority 2021, dated 2026)
# Legend:
# [1] = tested on: cultured product composed of cell masses containing hiPSC-Neuron and astrocytes derived from a human fetus; assay: Evaluation of electrophysiological neurotoxicity of test compound: firing frequency response on MEA plate; type: cell-based; details: spontaneous firing frequency before exposure 200 Hz or more per 16 electrodes; compared with 4 times or more at 4 to <100 Hz; FIG. 10
# Procedure: A multi-electrode array (MEA) plate was prepared as a cell-containing container which is a cell-containing structure of the present embodiment.
# As a plate used for the MEA plate, CytoView MEA Plate (commercially available from Axion Biosystems) having 6×8 wells (a total of 48 wells) and a micro electrode array on the well bottom was used. […]
# In the main test, the action potential of neurons adhered onto a micro electrode 3 arranged on the well bottom as shown in FIG. 1 was measured as an extracellular potential, and the neurotoxicity was evaluated from the change in extracellular potential when the test compound was treated. […]
# That is, using maestro Pro (commercially available from Axion Biosystems), for the prepared MEA Cytoview Plate (commercially available from Axion Biosystems), the results of the extracellular potential of the cultured product 2 composed of cell masses containing hiPSC-Neuron and astrocytes derived from a human fetus, which were adhered to the well bottom 1 shown in FIG. 1 and FIG. 2, measured using maestro Pro for 10 minutes are illustrated as a raster plot 6 of FIG. 3 and a graph 7 of the number of detected spikes. […] The spontaneous firing frequency (Hz) can be detected from the number of peaks in the graph […]. […]
# [2] = tested on: cultured product composed of cell masses containing hiPSC-Neuron and astrocytes derived from a human fetus; assay: Pharmacological test with anti-epileptic drugs on MEA plate (extracellular potential, raster plot, number of spikes); type: cell-based; details: Before vs After drug exposure; FIGS. 6-8
# Procedure: From 22 days after cell seeding, once a week, extracellular potential data was acquired for 10 minutes using an extracellular measurement device maestro (Axion Biosystems).
# That is, using maestro Pro (commercially available from Axion Biosystems), for the prepared MEA Cytoview Plate (commercially available from Axion Biosystems), the results of the extracellular potential of the cultured product 2 composed of cell masses containing hiPSC-Neuron and astrocytes derived from a human fetus, which were adhered to the well bottom 1 shown in FIG. 1 and FIG. 2, measured using maestro Pro for 10 minutes are illustrated as a raster plot 6 of FIG. 3 and a graph 7 of the number of detected spikes. […] The spontaneous firing frequency (Hz) can be detected from the number of peaks in the graph 7 per hour.
# Using the plate produced in Experimental Example 1, a pharmacological test was performed using various drugs. The effect of the drug was confirmed by exposing an anti-epileptic drug having a function of inhibiting nerve firing to a sample. The evaluated drugs were Carbamazepine, Phenytoin, and Zonisamide, and the measurement was performed under the same conditions as the measurement of the extracellular potential data of Experimental Example 1.
# A graph of a raster plot that visualizes the firing state and the number of detected. spikes for each drug is shown for Carbamazepine in FIG. 6, Phenytoin in FIG. 7, and Zonisamide in FIG. 8. Before in the drawings indicates before drug exposure, and After indicates after drug exposure. In all of the drugs, it was observed that the spontaneous firing frequency that could be detected from the number of spikes after drug exposure was reduced, and the mode in which that firing activity of the nerve was reduced after drug exposure was confirmed. That is, it was observed that the plate of this example could be used for detection in the pharmacological test using various drugs.
smiles,measurement,setting,value
Nc1ccncc1 [4-AP],response rate to the test compound (firing frequency after exposure),[1],about half that
NC(=O)N1c2ccccc2C=Cc2ccccc21 [Carbamazepine],spontaneous firing frequency detected from the number of spikes after drug exposure,[2],reduced
O=C1NC(=O)C(c2ccccc2)(c2ccccc2)N1 [Phenytoin],spontaneous firing frequency detected from the number of spikes after drug exposure,[2],reduced
CC[C@@H]1C(=O)OC[C@@H]1Cc1cncn1C [Pilocarpine],response rate to the test compound (firing frequency after exposure),[1],about half that
NS(=O)(=O)Cc1noc2ccccc12 [Zonisamide],spontaneous firing frequency detected from the number of spikes after drug exposure,[2],reduced
